Source: patent US12480944B2, “Detection and analysis of cells” (First Light Diagnostics, Inc., priority 2018, dated 2025)
Where two headings read alike, the source gives them in different places.

Key:
[1] = test system: K. pneumonaie strain in clinical urine sample BIUR0084; assay: Automated MultiPath AST cartridge on clinical urine specimen, Example 8; format: cell-based; details: clinical urine BIUR0084 (K. pneumoniae), fold growth value of 2; for growth call at all antibiotic concentrations: 2 concentrations; for sensitive/resistant call by MulitPath: 4 h growth at 35° C., matched CLSI BMD
[2] = test system: P. aeruginosa; parameters: key: previously determined antibiotic resistance (shown with “X”); “IR” = Intrinsically resistant; details: cited from earlier work
[3] = test system: K. pneumoniae; parameters: key: previously determined antibiotic resistance (shown with “X”); “IR” = Intrinsically resistant; details: cited from earlier work
[4] = test system: K. oxytoca; parameters: key: previously determined antibiotic resistance (shown with “X”); “IR” = Intrinsically resistant; details: cited from earlier work
[5] = test system: P. mirabilis; parameters: key: previously determined antibiotic resistance (shown with “X”); “IR” = Intrinsically resistant; details: cited from earlier work
[6] = test system: E. coli; parameters: key: previously determined antibiotic resistance (shown with “X”); “IR” = Intrinsically resistant; details: cited from earlier work
[7] = strain P. aeruginosa ATCC 27853
[8] = strain K. pneumoniae ATCC 13883

| Compound | previously determined antibiotic resistance [2, 7] | previously determined antibiotic resistance ([2]; strain P. aeruginosa CDC0105) | previously determined antibiotic resistance ([2]; strain P. aeruginosa CDC0111) | previously determined antibiotic resistance ([2]; strain P. aeruginosa CDC0242) | previously determined antibiotic resistance ([2]; strain P. aeruginosa CDC0251) | previously determined antibiotic resistance ([2]; strain P. aeruginosa CDC0253) | previously determined antibiotic resistance [3, 8] | previously determined antibiotic resistance ([3]; strain K. pneumoniae CDC0010) | previously determined antibiotic resistance ([3]; strain K. pneumoniae CDC0016) | previously determined antibiotic resistance ([3]; strain K. pneumoniae CDC0126) | previously determined antibiotic resistance ([4]; strain K. oxytoca CDC0028) | previously determined antibiotic resistance ([4]; strain K. oxytoca CDC0071) | previously determined antibiotic resistance ([4]; strain K. oxytoca CDC0147) | previously determined antibiotic resistance ([5]; strain P. mirabilis ATCC 7002) | previously determined antibiotic resistance ([5]; strain P. mirabilis CDC0029) | previously determined antibiotic resistance ([5]; strain P. mirabilis CDC0059) | previously determined antibiotic resistance ([5]; strain P. mirabilis CDC0155) | previously determined antibiotic resistance ([5]; strain P. mirabilis CDC0156) | previously determined antibiotic resistance ([5]; strain P. mirabilis CDC0159) | previously determined antibiotic resistance ([6]; strain E. coli ATCC 25922) | also measured |
| --- | --- | --- | --- | --- | --- | --- | --- | --- | --- | --- | --- | --- | --- | --- | --- | --- | --- | --- | --- | --- | --- |
| Cc1nnc(SCC2=C(C(=O)O)N3C(=O)[C@@H](NC(=O)Cn4cnnn4)[C@H]3SC2)s1 [Cefazolin] |  |  |  |  |  |  |  |  |  |  |  |  |  |  |  |  |  |  |  |  | growth call at all antibiotic concentrations [1]: growth; sensitive/resistant call by MulitPath [1]: resistant |
| CC(C)(O/N=C(\C(=O)N[C@@H]1C(=O)N2C(C(=O)[O-])=C(C[n+]3ccccc3)CS[C@H]12)c1csc(N)n1)C(=O)O [Ceftazidime] | X | X | X | X | X | X | X | X | X | X | X | X | X | X | X | X | X | X | X | X | previously determined antibiotic resistance ([3]; strain K. pneumoniae CDC0041): X; previously determined antibiotic resistance ([3]; strain K. pneumoniae CDC0107): X; previously determined antibiotic resistance ([3]; strain K. pneumoniae CDC0160): X; previously determined antibiotic resistance ([6]; strain E. coli CDC0020): X; previously determined antibiotic resistance ([6]; strain E. coli CDC0067): X; previously determined antibiotic resistance ([6]; strain E. coli CDC0084): X; previously determined antibiotic resistance ([6]; strain E. coli CDC0086): X; previously determined antibiotic resistance ([6]; strain E. coli CDC0350): X |
| O=C(O)c1cn(C2CC2)c2cc(N3CCNCC3)c(F)cc2c1=O [Ciprofloxacin] | X |  |  |  | X | X | X |  | X | X | X | X | X | X | X | X | X | X | X | X | previously determined antibiotic resistance ([2]; strain P. aeruginosa CDC0259): X; previously determined antibiotic resistance ([2]; strain P. aeruginosa CDC0261): X; previously determined antibiotic resistance ([2]; strain P. aeruginosa CDC0262): X; previously determined antibiotic resistance ([3]; strain K. pneumoniae CDC0034): X; previously determined antibiotic resistance ([3]; strain K. pneumoniae CDC0076): X; previously determined antibiotic resistance ([3]; strain K. pneumoniae CDC0117): X; previously determined antibiotic resistance ([6]; strain E. coli BAA-2452): X; previously determined antibiotic resistance ([6]; strain E. coli BAA-2469): X; previously determined antibiotic resistance ([6]; strain E. coli BAA-2471): X; previously determined antibiotic resistance ([6]; strain E. coli CDC0017): X; previously determined antibiotic resistance ([6]; strain E. coli CDC0019): X |
| C[C@@H](O)[C@H]1C(=O)N2C(C(=O)O)=C(S[C@@H]3CN[C@H](C(=O)N(C)C)C3)[C@H](C)[C@H]12 [Meropenem] |  | X | X | X |  |  | X | X | X |  | X | X | X | X | X | X | X | X | X | X | previously determined antibiotic resistance ([2]; strain P. aeruginosa CDC0232): X; previously determined antibiotic resistance ([2]; strain P. aeruginosa CDC0247): X; previously determined antibiotic resistance ([3]; strain K. pneumoniae CDC0034): X; previously determined antibiotic resistance ([3]; strain K. pneumoniae CDC0043): X; previously determined antibiotic resistance ([3]; strain K. pneumoniae CDC0076): X; previously determined antibiotic resistance ([3]; strain K. pneumoniae CDC0080): X; previously determined antibiotic resistance ([6]; strain E. coli CDC0001): X; previously determined antibiotic resistance ([6]; strain E. coli CDC0006): X; previously determined antibiotic resistance ([6]; strain E. coli CDC0020): X; previously determined antibiotic resistance ([6]; strain E. coli CDC0085): X; previously determined antibiotic resistance ([6]; strain E. coli CDC0114): X |
| Trimethoprim/Sulfamethoxazole | IR | IR | IR | IR | IR | IR | X | X | X | X | X | X | X | X | X | X | X | X | X | X | previously determined antibiotic resistance ([2]; strain P. aeruginosa CDC0232): IR; previously determined antibiotic resistance ([2]; strain P. aeruginosa CDC0247): IR; previously determined antibiotic resistance ([2]; strain P. aeruginosa CDC0259): IR; previously determined antibiotic resistance ([2]; strain P. aeruginosa CDC0261): IR; previously determined antibiotic resistance ([2]; strain P. aeruginosa CDC0262): IR; previously determined antibiotic resistance ([3]; strain K. pneumoniae CDC0107): X; previously determined antibiotic resistance ([3]; strain K. pneumoniae CDC0117): X; growth call at all antibiotic concentrations [1]: growth; sensitive/resistant call by MulitPath [1]: resistant; previously determined antibiotic resistance ([6]; strain E. coli BAA-2469): X; previously determined antibiotic resistance ([6]; strain E. coli BAA-2471): X; previously determined antibiotic resistance ([6]; strain E. coli CDC0017): X; previously determined antibiotic resistance ([6]; strain E. coli CDC0019): X; previously determined antibiotic resistance ([6]; strain E. coli CDC0084): X |
